# US20170066780A1, “INHIBITORS OF EZH2” (Eli Lilly and Company, priority 2015, published 2017)
# Tests used:
# [1] = biological target: WT 5-mer EZH2 (PRC2 complex) (Homo sapiens, UniProt Q15910); assay: EZH2 WT 384-well biochemical assay (SPA, 3H-SAM)
# Procedure: (§1) The purpose of this assay is to measure the compound effect on the catalytic activity of EZH2 WT/Y641N in the context of the PRC2 complex.
# (§2) Express FLAG-tagged EZH2 or EZH2 Y641N as the PRC2 5-membered (5-mer) complex consisting of EZH2, EED, SUZ12, RBBP4 and AEBP proteins using a baculovirus expression system in Sf9 cells, and purify using FLAG® Affinity Purification (Sigma-Aldrich).
# (§3) Place 20 μL 100% DMSO in dilution wells. Perform 3× serial dilutions by transferring 10 μL from one well to the next. […] In the WT assay, dispense 15 μL of the enzyme/tri-methyl H3 co-activator peptide mix into the assay plate, followed by 5 μL of the biotin H3 peptide substrate/^3H-SAM mix. Seal the plates and shake for 2 hr at RT. […] Plot normalized data and render curves using […] ® Condoseo as % inhibition (y axis) vs. log compound concentration (x-axis), and determine IC50 values using a 4-parameter nonlinear logistic fitting algorithm.
# [2] = system: Karpas-422 cells; assay: Karpas-422 proliferation assay; assay type: cell-based; conditions: Homo sapiens, KARPAS-422, 168 h; 7 days, Cell Titer GLO
# Procedure: Plate Karpas-422 cells at a density of 5000 cells/100 μL/well in 96 well, black 96-well BD BIOCOAT® Cellware, Poly-Lysine plates (BD Biosciences, Cat#354640). 40 μL of 10 mM test compound (representing starting final concentration of 20 μM) or add 100% DMSO to a NUNC™ 96-Well Polypropylene MICROWELL™ Plate (Thermo Scientific Cat# #249944). Perform serial dilutions through the transfer of 20 μL from one well to the next. Add 5 μL of compound to a 245 μL/well of growth media in a separate NUNC™ 96-Well Polypropylene MICROWELL™ Plate, and stamp 11 μL of the compound/media mix onto the cell plates. Incubate cell plates at 37° C. for 7 days. Add 100 μL/well of Cell Titer GLO® reagent (Promega, Cat# G7671) to the cell plates. Shake 2 min and measure luminescence using a plate reader. Compounds within the scope of the invention may be tested in this assay substantially as described above.
# [3] = system: cell tri-methylated H3K27 in MDA MB-231; assay: H3K27Me3 cell-based ELISA, MDA MB-231; conditions: Homo sapiens
# [4] = system: cell tri-methylated H3K27 in Karpas-422 (EZH2 Y641N) cells; assay: H3K27Me3 cell-based ELISA, Karpas-422; conditions: Homo sapiens; Karpas-422, 48 hr
# Procedure: The purpose of this assay is to evaluate the ability of a compound to inhibit the functional activity of EZH2 in cells, via measurement of levels of cell tri-methylated H3K27. Plate Karpas-422 (EZH2 Y641N) cells at 5,000 cells/100 μL/well in black 96-well BD BIOCOAT® Cellware, Poly-Lysine plates (BD Biosciences, Cat#354640). Prepare compound plates in a NUNC™ 96-Well Polypropylene MICROWELL™ Plate (Thermo Scientific Cat# #249944) with the addition of 40 μL/well of 10 mM compound (representing starting final concentration of 20 μM) or 40 μL DMSO, then prepare serial dilutions through the transfer of 20 μL from one well to the next. Add 5 μL of test compound to 245 μL/well of growth media in a separate NUNC™ 96-Well Polypropylene MICROWELL™ Plate, and stamp 11 μL of the compound/media mix onto the cell plates. Place cell plates in a 37° C. incubator for 48 hr. Remove plates from the incubator, place the plates at room temperature for 15-20 min, and spin down the plates at 1000 rpm for 5 min Fix cells with 30 μL 16% paraformaldehyde for 15 min at RT. Remove the paraformaldehyde and permeabilize cells with 100 μL/well PBS minus calcium or magnesium (−/−) containing 0.1% TRITON® X-100 for 20 min at RT. Wash plates with PBS (−/−) (2×), followed by incubation for 2 hr at RT of 50 μL/well of primary antibody solution (Diagenode anti-H3K27me3 MAb-181-050; 1:3000 dilution in PBS plus calcium and magnesium (+/+) containing 1% BSA). Wash plates with PBS−/−, (3×) followed by incubation with 50 μL/well secondary antibody solution (Invitrogen goat anti-mouse IgG Alexa 488, Cat# A11001; 1:1000 dilution in PBS+/+) for 1 hr at RT in the dark. Wash plates with PBS−/−, (3×), followed by adding 50 μL/well of 5 μg/mL propidium iodide (Invitrogen; Cat# p3566) staining solution in PBS containing 200 μg/mL RNase (Invitrogen; Cat#12091021). Cover plates with black plate seals and scan on ACUMEN® laser scanning cytometer (TTP Lab Tech) with Ex 488 nm/Em 505 nm-530 nm (H3K27m3 signal) and LP655 nm (cell nuclear signal). […]
# [5] = biological target: mut 5-mer EZH2 (EZH2 Y641N, PRC2 complex) (Homo sapiens, UniProt Q15910, Y641N); assay: EZH2 Y641N mut 384-well biochemical assay (SPA, 3H-SAM)
# mut 5-mer EZH2 (EZH2 Y641N, PRC2 complex), sequence (Q15910 whole entry Y641N): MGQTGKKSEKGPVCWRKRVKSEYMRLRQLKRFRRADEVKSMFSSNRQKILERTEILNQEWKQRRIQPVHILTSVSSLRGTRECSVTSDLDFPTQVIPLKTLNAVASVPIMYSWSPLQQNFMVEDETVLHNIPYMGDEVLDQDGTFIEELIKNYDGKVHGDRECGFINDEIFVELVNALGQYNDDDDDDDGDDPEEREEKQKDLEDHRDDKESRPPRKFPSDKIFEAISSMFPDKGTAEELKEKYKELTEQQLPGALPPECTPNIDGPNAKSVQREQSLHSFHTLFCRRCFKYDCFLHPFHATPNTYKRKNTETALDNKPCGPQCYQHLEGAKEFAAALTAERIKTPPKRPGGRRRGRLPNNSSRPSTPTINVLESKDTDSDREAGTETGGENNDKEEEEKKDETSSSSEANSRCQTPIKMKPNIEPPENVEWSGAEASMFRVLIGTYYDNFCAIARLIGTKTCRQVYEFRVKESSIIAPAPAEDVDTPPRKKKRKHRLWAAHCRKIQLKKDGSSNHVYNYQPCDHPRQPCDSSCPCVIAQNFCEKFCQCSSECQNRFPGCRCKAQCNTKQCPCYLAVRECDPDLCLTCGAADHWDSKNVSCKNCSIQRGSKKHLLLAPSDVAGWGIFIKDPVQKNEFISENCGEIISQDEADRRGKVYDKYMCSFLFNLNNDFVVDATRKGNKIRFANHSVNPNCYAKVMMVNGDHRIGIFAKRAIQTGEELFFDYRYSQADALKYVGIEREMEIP
# mut 5-mer EZH2 (EZH2 Y641N, PRC2 complex), sequence (O75530 whole entry partner): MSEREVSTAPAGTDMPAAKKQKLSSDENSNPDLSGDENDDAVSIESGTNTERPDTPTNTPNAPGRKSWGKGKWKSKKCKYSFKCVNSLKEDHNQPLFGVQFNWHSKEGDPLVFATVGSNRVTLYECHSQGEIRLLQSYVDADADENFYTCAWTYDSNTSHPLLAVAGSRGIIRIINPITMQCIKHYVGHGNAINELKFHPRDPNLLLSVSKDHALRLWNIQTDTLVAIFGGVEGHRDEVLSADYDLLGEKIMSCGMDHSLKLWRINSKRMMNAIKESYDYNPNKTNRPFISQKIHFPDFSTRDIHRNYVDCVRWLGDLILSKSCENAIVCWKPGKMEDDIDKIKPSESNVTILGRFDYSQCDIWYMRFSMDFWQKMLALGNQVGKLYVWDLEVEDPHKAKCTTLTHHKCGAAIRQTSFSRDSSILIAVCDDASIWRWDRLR
# mut 5-mer EZH2 (EZH2 Y641N, PRC2 complex), sequence (Q15022 whole entry partner): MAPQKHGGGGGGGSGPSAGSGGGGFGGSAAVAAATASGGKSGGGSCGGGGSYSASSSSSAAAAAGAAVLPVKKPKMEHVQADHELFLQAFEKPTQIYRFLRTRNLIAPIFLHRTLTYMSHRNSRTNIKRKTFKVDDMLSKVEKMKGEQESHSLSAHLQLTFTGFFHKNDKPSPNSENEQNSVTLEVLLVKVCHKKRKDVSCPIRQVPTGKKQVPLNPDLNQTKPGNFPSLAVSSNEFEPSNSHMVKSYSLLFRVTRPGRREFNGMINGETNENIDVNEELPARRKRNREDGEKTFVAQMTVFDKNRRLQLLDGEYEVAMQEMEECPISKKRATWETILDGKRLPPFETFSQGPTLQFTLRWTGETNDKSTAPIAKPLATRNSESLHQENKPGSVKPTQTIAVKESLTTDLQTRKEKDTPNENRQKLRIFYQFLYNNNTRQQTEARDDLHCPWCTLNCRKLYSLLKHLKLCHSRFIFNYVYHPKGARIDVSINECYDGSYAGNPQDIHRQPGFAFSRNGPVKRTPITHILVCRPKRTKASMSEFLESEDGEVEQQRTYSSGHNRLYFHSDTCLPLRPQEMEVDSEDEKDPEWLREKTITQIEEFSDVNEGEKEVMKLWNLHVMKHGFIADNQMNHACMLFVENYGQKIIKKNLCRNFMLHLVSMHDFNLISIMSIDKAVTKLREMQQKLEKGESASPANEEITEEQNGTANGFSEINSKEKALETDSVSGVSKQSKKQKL
# mut 5-mer EZH2 (EZH2 Y641N, PRC2 complex), sequence (Q09028 whole entry partner): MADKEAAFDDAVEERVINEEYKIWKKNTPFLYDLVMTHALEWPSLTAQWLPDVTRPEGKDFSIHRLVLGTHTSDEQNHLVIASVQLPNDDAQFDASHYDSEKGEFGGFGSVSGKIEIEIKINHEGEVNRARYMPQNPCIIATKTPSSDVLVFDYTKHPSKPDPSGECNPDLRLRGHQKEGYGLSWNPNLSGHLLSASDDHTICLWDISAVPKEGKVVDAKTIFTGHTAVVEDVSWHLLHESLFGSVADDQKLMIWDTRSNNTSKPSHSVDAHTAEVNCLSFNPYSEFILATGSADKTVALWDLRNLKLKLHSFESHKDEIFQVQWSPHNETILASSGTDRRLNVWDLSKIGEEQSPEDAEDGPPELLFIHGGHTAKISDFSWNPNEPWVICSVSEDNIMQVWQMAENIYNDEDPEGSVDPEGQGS
# mut 5-mer EZH2 (EZH2 Y641N, PRC2 complex), sequence (Q6ZN18 whole entry partner): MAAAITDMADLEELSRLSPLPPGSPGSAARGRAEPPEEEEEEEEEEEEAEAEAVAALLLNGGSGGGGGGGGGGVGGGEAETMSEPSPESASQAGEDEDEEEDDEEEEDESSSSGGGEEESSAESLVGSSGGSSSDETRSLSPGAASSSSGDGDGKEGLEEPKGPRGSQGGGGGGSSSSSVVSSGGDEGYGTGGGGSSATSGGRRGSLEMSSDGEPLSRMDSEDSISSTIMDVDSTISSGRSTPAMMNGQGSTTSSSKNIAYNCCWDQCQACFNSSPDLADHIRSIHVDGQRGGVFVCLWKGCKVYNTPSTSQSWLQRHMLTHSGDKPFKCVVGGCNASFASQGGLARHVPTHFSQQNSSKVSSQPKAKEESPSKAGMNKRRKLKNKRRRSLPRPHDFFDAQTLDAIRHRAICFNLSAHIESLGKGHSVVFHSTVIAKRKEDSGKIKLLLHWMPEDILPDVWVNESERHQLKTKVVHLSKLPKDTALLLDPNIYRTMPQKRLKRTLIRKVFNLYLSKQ
# Procedure: as §1, §2, §3
# WT 5-mer EZH2 (PRC2 complex), sequence (Q15910 whole entry): as the sequence (Q15910 whole entry Y641N) above, with N641Y counted along it
# WT 5-mer EZH2 (PRC2 complex), sequence (O75530 whole entry partner): as the sequence (O75530 whole entry partner) above
# WT 5-mer EZH2 (PRC2 complex), sequence (Q15022 whole entry partner): as the sequence (Q15022 whole entry partner) above
# WT 5-mer EZH2 (PRC2 complex), sequence (Q09028 whole entry partner): as the sequence (Q09028 whole entry partner) above
# WT 5-mer EZH2 (PRC2 complex), sequence (Q6ZN18 whole entry partner): as the sequence (Q6ZN18 whole entry partner) above
SMILES,inhibition of the methyltransferase activity of EZH2 (in words) ([1]; recombinant WT/mut EZH2 in the context of the PRC2 complex),IC50 [2] [nM],IC50 [3] [nM],IC50 [4] [nM],IC50 [5] [nM],IC50 [1] [nM]
"Cc1cc(C)c(CN2CCc3sc(N(C)[C@H]4CC[C@H](N5CC(n6cccn6)C5)CC4)c(C)c3C2=O)c(=O)[nH]1 [Example 20, 5-[(4,6-Dimethyl-2-oxo-1,2-dihydropyridin-3-yl)methyl]-3-methyl-2-(methyl{trans-4-[3-(1H-pyrazol-1-yl)azetidin-1-yl]cyclohexyl}amino)-6,7-dihydrothieno[3,2-c]pyridin-4(5H)-one]",demonstrate inhibition,,,,,
"CCN(c1sc2c(c1C)C(=O)N(Cc1c(C)cc(C)[nH]c1=O)CC2)[C@H]1CC[C@H](N2CC(OC)C2)CC1 [Example 22, 5-[(4,6-Dimethyl-2-oxo-1,2-dihydropyridin-3-yl)methyl]-2-{ethyl[trans-4-(3-methoxyazetidin-1-yl)cyclohexyl]amino}-3-methyl-6,7-dihydrothieno[3,2-c]pyridin-4(5H)-one]",,84.5 ± 42.7,< 1,0.0148 ± 0.0147,7.21,3.29 ± 1.24
